Experimental findings from patent publication US20240033207A1, “TOPICALLY ADMINISTRABLE LYSATE (LY) OF DEDIFFERENTIATED CELLS OF THE PLANT HELICHRYSUM STOECHAS FOR ELIMINATING OR REDUCING INFLAMMATION OF THE SKIN” (SOCIETE D'EXPLOITATION DE PRODUITS POUR LES INDUSTRIES …, priority 2020, published 2024) are described below.

Marks after values point to notes of the source that are not given here.

The subject of this assay is normal human keratinocytes (NHEK) cocultured with dendritic cells (DC). Nature of the assay: Coculture of primary human keratinocytes with dendritic cells, PMA/A23187/PUFA stimulation, lipid mediators in supernatant by LC-MS/MS. In kind it is cell-based. The source says: Dendritic cells form part of the cells of the cutaneous immune system, and they are involved in the early inflammatory response. This model is targeted at mimicking the interactions which take place naturally in the skin between the keratinocytes and the cells of the immune system, and it makes it possible to evaluate the impact of active principles on the processes of resolution of inflammation. Briefly, normal human keratinocytes (NHEK) are inoculated in inserts and cultured without contact with dendritic cells (DC) inoculated in the bottom of the wells. The cells are pretreated with the composition CA or glycerol. After 20 hours of incubation, the inflammatory stimulus (mixture of phorbol 12-myristate 13-acetate (PMA) and of calcium ionophore A23187), polyunsaturated fatty acids (PUFAs, lipid precursors of inflammation mediators, eicosanoids) and the compounds (composition CA or glycerol) were again added and incubated for 1 hour. Subsequently, the culture supernatants were collected for analysis of lipid mediators. The experiments were replicated three times. […] The amounts of 5-HETE, LTB4, 12-HETE, 15-HETE and 17-HDOHE are measured by the use of an LC-MS/MS method using a UPLC system (Agilent LC1290 Infinity) coupled to an Agilent 6490 triple quadrupole mass spectrometer (Agilent Technologies) equipped with electrospray ionization operating in negative mode, and are expressed in picograms per culture well (pg/well). The values obtained were expressed as mean+/-sem [standard error of the mean=standard deviation/square root (number of values)]. For each condition, the percentages of activation were calculated as follows: % activation=[mean (condition)]/[mean (stimulated cells)]×100-100. • stimulated cells: PMA/A23187/PUFA-treated cells in the case where the condition studied is the treatment with glycerol. • stimulated cells: cells treated with PMA/A23187/PUFA+0.1% DMSO in the case where the condition studied is the treatment with the composition CA. The statistical analysis was carried out by a Student's test and a significance threshold was set at 5%, the conditions being compared in pairs. A difference between the effectiveness of two products was considered: • significant if p<0.05; • “at the limit of significance” if 0.05≤p<0.1; • and not significant if p>0.1.

Where [1] appears, read: 0.01%, PMA/A23187/PUFA-stimulated coculture supernatant, proresolving mediator.
[2] abbreviates: 0.01%, vs respective stimulated cells (PMA/A23187/PUFA for glycerol, + 0.1% DMSO for composition CA).
Where [3] appears, read: 0.05%, PMA/A23187/PUFA-stimulated NHEK/DC coculture supernatant, proinflammatory mediator.
Setting [4] is: 0.05%, vs PMA/A23187/PUFA-treated cells.

As to `OCC(O)CO` [Glycerol], under setting [1], the “12-HETE (pg/well) Mean +/− SEM” value is 15 +/− 1 pg/well, the “15-HETE (pg/well) Mean +/− SEM” value is 273 +/− 26 pg/well and the “17-HDOHE (pg/well) Mean +/− SEM” value is given as 16654 +/− 1409 pg/well. Moreover, under setting [2], the 12-HETE % activation amounted to 58%^15, the 15-HETE % activation is recorded as 63%* and the 17-HDOHE % activation result is “+13%”. Besides, under setting [3], the “5-HETE (pg/well) Mean +/− SEM” value was 1152 +/− 201 pg/well and the “LTB4 (pg/well) Mean +/− SEM” value was 400 +/− 38 pg/well. Under setting [4], this molecule yielded a 5-HETE % activation of 144%* and an LTB4 % activation of 88%*.
